Measurements from PubChem BioAssay (NCI).
“And” between values parts separate entries of the source, which are not always exact repeats. Equal entries are not always repeated.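 Growth conditions: 96-well plates. Treatment: test compound, 48 hours, 5 concentrations. Analysis: linear interpolation between bracketing concentrations; unreached endpoints set to highest concentration. GI50 is the concentration that inhibits growth by half. The concentration for full growth arrest is given as TGI.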

Columns and labels:
Assay in all cases: NCI anticancer screen, dose series, 48 h
[1] = test system: 786-0 renal
[2] = test system: BT-549 breast
[3] = test system: HCC-2998 colon
[4] = test system: HL-60(TB) leukemia
[5] = test system: KM12 colon
[6] = test system: RXF 393 renal
[7] = test system: SF-539 CNS
[8] = test system: TK-10 renal
[9] = test system: HCT-116 colon
[10] = test system: OVCAR-5 ovarian

Row | SMILES | GI50 [1] [nM] | TGI [1] | GI50 [2] [nM] | TGI [2] | GI50 [3] [nM] | TGI [3] | GI50 [4] | TGI [4] | GI50 [5] | TGI [5] | GI50 [6] | TGI [6] | GI50 [7] | TGI [7] | GI50 [8] | TGI [8] | GI50 [9] | GI50 [10] [nM] | TGI [10] | TGI [9]
1 | C#CCOc1cccc(-c2ncc3cc(NC(=O)CCl)ccc3n2)c1 | 2010 | 3.59 µM | 1470 | 3.18 µM | 1910 | 3.4 µM | 2280 nM | 8.02 µM | 1610 nM | 3.11 µM | 1640 nM | 3.09 µM | 1510 nM | 2.92 µM | 2600 nM | 4.85 µM |  |  |  | 
2 | COC(=O)C[C@](O)(CCCC(C)(C)O)C(=O)O[C@@H]1C(OC)=C[C@]23CCCN2CCc2cc4c(cc2[C@H]13)OCO4 | 33 |  | 28.8 |  | 13.7 | 0.246 µM and 0.0428 µM | 24.9 nM | 0.237 µM and 0.0758 µM | 32.6 nM | 0.885 µM and 0.182 µM | 21.7 nM | 0.503 µM and 0.107 µM | 19.5 nM | 0.264 µM and 0.0539 µM | 34.7 nM |  | 134 nM and 15.3 nM | 48.9 | 2.93 µM and 0.556 µM | 
3 | CC/C=C\C[C@H](O)C/C=C1/C(=O)C(Cl)=C[C@@H]1C/C=C\CCCC(=O)OC | 486 | 1.56 µM | 341 | 1.04 µM | 701 | 2.22 µM | 453 nM | 1.91 µM | 387 nM | 1.14 µM | 1090 nM | 3.58 µM | 818 nM | 3.05 µM | 946 nM | 3.09 µM | 275 nM | 754 | 3.07 µM | 0.576 µM
4 | C=C1C(=O)OC2CC(C)C(C(CC(C)=O)OC(C)=O)=CCC12 (centres undefined) |  | 9.65 µM |  | 15.2 µM |  | 24.1 µM |  | > 29.3 µM |  | 37.2 µM |  | 32.2 µM |  | 69.3 µM |  | 31.1 µM |  |  | 31.6 µM | 4.21 µM
5 | CN(C)CCNC(=O)c1cccc2ccc(-c3ccc(O)cc3)nc12 |  | 14.4 µM |  | 19.5 µM | 1870 | 17.5 µM and 14.1 µM |  | 3.36 µM | 3030 nM | 16.8 µM and 14.9 µM | 5650 nM | 17.4 µM and 19.8 µM |  | 15.1 µM and 13.9 µM |  | 9.57 µM | 879 nM |  | 9.11 µM | 2.78 µM and 10.7 µM
6 | CC(C)NC(=O)OCc1c(COC(=O)NC(C)C)c(-c2cc[n+](COC(=O)C3CC3)cc2)n2c1CCC2 |  | > 100 µM |  | > 100 µM |  | > 100 µM |  | > 100 µM |  | > 100 µM |  | > 100 µM |  | > 100 µM |  | > 100 µM |  |  | > 100 µM | > 100 µM
7 | Cc1cc(Cl)cc(OCCn2cc(F)cn2)c1-c1nc(N)nc2c1CN(C(=O)NCC(C)(F)F)C2 | 3180 | > 100 µM | 50300 | > 100 µM | 315 | > 100 µM | 40.7 nM | > 100 µM | 50.8 nM | 0.459 µM |  | > 100 µM | 181 nM | > 100 µM | 144 nM | > 100 µM | 54.8 nM | 2660 | > 100 µM | > 100 µM
8 | C/C=C(\C)C(=O)O[C@H]1C=CC(=O)O[C@H]1CCC(=O)[C@H](C)O | 14900 | 30.1 µM | 19000 | 36.8 µM | 17100 | 32.4 µM | 7340 nM | 24.8 µM | 17800 nM | 38.8 µM | 7080 nM | 28.5 µM | 19200 nM | 35.8 µM | 17700 nM | 34 µM | 2870 nM | 22400 | 50.8 µM | 11.2 µM
9 | COc1cccc(C2CC(C)(O)Oc3cc4c(cc32)OCO4)c1O (centres undefined) |  | > 100 µM |  | 62.4 µM |  | 51.2 µM |  | > 59 µM |  | 52.3 µM |  | > 79.8 µM |  | 38.5 µM |  | > 100 µM |  |  | > 95.7 µM | > 69.4 µM
10 | Oc1ccc(Nc2ncnc3c2sc2ncccc23)cc1 | < 10 |  | 38.9 | > 100 µM | > 33300 | > 100 µM | 28.8 nM | > 56.5 µM | 1730 nM | > 100 µM | 71 nM | 97 µM | 26.6 nM | 0.293 µM | > 100000 nM | > 100 µM | < 10 nM | 83.1 | > 100 µM | > 100 µM
11 | COc1ccc(OC)c2c1[nH]c(=O)c1c3ccccc3cn21 | 1880 | 3.34 µM | 2270 | 5.29 µM | 1340 | 2.68 µM | 1700 nM | 4.24 µM | 1290 nM | 2.89 µM | 1500 nM | 3.01 µM | 1690 nM | 3.08 µM | 2010 nM | 3.76 µM | 673 nM | 1870 | 3.69 µM | 2.01 µM
12 | COc1ccc(C2SC(N)=Nc3c2c(C)nn3C(=O)c2ccncc2)cc1OC (centres undefined) |  | > 10 µM |  | > 10 µM |  | > 10 µM |  | > 10 µM |  | > 10 µM |  | > 10 µM |  | > 10 µM |  | > 10 µM |  |  | > 10 µM | > 10 µM
13 | Nc1ccc([N+](=O)[O-])cc1N=C/C=C/c1ccccc1 | 23300 | > 100 µM | 12500 | > 100 µM | 30100 | > 100 µM | 2640 nM | > 100 µM | 3870 nM | 51.2 µM | 22700 nM | > 100 µM | 21700 nM | > 100 µM | 33300 nM | > 100 µM | 7860 nM | 81200 | > 100 µM | 25 µM
14 | C/C=C/C(CC(O)(C(F)(F)F)C(F)(F)F)=N/NC(N)=S |  | > 10 µM |  | > 10 µM |  | > 10 µM |  | > 10 µM |  | > 10 µM |  | > 10 µM |  | > 10 µM |  | > 10 µM |  |  | > 10 µM | > 10 µM
15 | COc1cccc2c1C(=O)c1c(O)c3c(c(O)c1C2=O)C[C@@](O)(C(=O)CO)C[C@@H]3OC1CC(N)CC(C)O1 (some centres undefined) | 20 | 0.514 µM and 0.568 µM | 106 | 0.46 µM and 0.215 µM | 117 | 0.429 µM and 0.619 µM | 9.1 nM and 9.29 nM and 41.2 nM | 0.122 µM and 0.939 µM | 79.8 nM and 51.5 nM | 1.31 µM and 1.89 µM | 122 nM and 80.6 nM | 0.298 µM and 0.369 µM | 18.9 nM and 47.1 nM | 0.194 µM and 0.211 µM | 396 nM and 148 nM | 1.55 µM and 3.45 µM | 15.5 nM and 43.1 nM | 116 | 0.775 µM and 0.799 µM | 0.79 µM and 0.33 µM
